Data set [1] deals with T1, Growth hormone secretagogue receptor type 1 (Homo sapiens, UniProt Q92847). As to the kind of experiment: Inverse agonist activity at SNAP-tagged human GHSR expressed in HEK293 cells assessed as inhibition of ghrelin-induced IP1 response measured after 30 mins by HTRF assay. The format is functional, cell-based. On the technique in general: In TR-FRET formats the signal depends on donor and acceptor labels being close together.

Data set [2] has as its target T1, Growth hormone secretagogue receptor type 1. The data set is described as follows: Displacement of red-ghrelin from SNAP-tagged human GHSR expressed in HEK293 cells incubated for 3 hrs at 4 degC or for 1 hr at room temperature by HTRF assay. The class given is cell-based.
Data set [3] has the same target. The following applies: HEK293, filed as inverse agonist, dose 1.0 10^-5M, time 30.0 min.
The nature of data set [4]: Toxicity in wild type C57BL6/J mouse assessed as subdued behavior at 1 nmol, icv injection for 2 mins via cannula. The following applies: in vivo, icv_or_intrathecal.
A short description of data set [5]: Toxicity in wild type C57BL6/J mouse assessed as altered breathing rate at 1 nmol, icv injection for 2 mins via cannula. The following applies: in vivo, icv_or_intrathecal.
For a further data set, the system named is Mus musculus. As to the kind of experiment: Suppression of compensatory hyperphagia in wild type C57BL6/J mouse assessed as reduction in cumulative food intake at 1 nmol, icv administered at 8 hrs interval for 48 hrs followed by refeeding at 2 hrs post last dose and measured for 7 days post refeeding. The format is functional. Also noted: scale not given: the % may be the effect or the level left. The following applies: time 9 day.

Data set [6] in a line: Toxicity in wild type C57BL6/J mouse assessed as sickness-like behavior at 1 nmol, icv injection for 2 mins via cannula. The following applies: in vivo, icv_or_intrathecal.
Data set [7] is described as follows: Anti-orexigenic activity in wild type C57BL6/J mouse assessed as reduction in ghrelin-induced food intake at 1 nmol, icv administered via cannula for 2 mins pretreated for 15 mins followed by ghrelin stimulation and measured after 2 hrs relative to control. The format is functional. More on the design: scale not given: the % may be the effect or the level left. The following applies: time 135 min, 2.25 h.

Data set [8] can be described thus: Toxicity in wild type C57BL6/J mouse assessed as appearance of spiky coat at 1 nmol, icv injection for 2 mins via cannula. The following applies: in vivo, icv_or_intrathecal.
The nature of data set [9]: Toxicity in wild type C57BL6/J mouse assessed as hunched posture at 1 nmol, icv injection for 2 mins via cannula. The following applies: in vivo, icv_or_intrathecal.
A short description of data set [10]: Toxicity in wild type C57BL6/J mouse assessed as effect on body weight at 1 nmol, icv injection for 2 mins via cannula. The following applies: in vivo, icv_or_intrathecal.
The nature of data set [11]: Toxicity in wild type C57BL6/J mouse assessed as effect on early dark cycle food intake at 1 nmol, icv injection for 2 mins via cannula measured after 5 hrs (reference value: 2591 +/- 197 mg). The following applies: in vivo, icv_or_intrathecal.
Data set [12] can be described thus: Toxicity in wild type C57BL6/J mouse assessed as effect on labored movement at 1 nmol, icv injection for 2 mins via cannula. The following applies: in vivo, icv_or_intrathecal.
Data set [13] is described as follows: Toxicity in wild type C57BL6/J mouse assessed as reduced activity at 1 nmol, icv injection for 2 mins via cannula. The following applies: in vivo, icv_or_intrathecal.
Data set [14] is described as follows: Solubility of the compound in water. The format is physicochemical.
Data set [15] has as its target T1, Growth hormone secretagogue receptor type 1. As to the kind of experiment: Antagonist activity at SNAP-tagged human GHSR expressed in HEK293 cells assessed as inhibition of ghrelin-induced IP1 accumulation at 10^-5M measured after 30 mins by IP1-d2 derivative based HTRF assay relative to ghrelin. The following applies: filed as antagonist, dose 1.0 10^-5M. The format is functional, cell-based.

The target is the same in data set [16]. The data set is described as follows: Antagonist activity at SNAP-tagged human GHSR expressed in HEK293 cells assessed as inhibition of ghrelin-induced IP1 accumulation at 10^-5M measured after 30 mins by IP1-d2 derivative based HTRF assay relative to control. The following applies: filed as antagonist, dose 1.0 10^-5M. The class given is functional, cell-based.

Data set [17] shares this target. As to the kind of experiment: Agonist activity at SNAP-tagged human GHSR expressed in HEK293 cells assessed as stimulation of ghrelin-induced increase in IP1 accumulation at 10^-5 M measured after 30 mins by IP1-d2 derivative based HTRF assay relative to ghrelin. The format is functional, cell-based. The following applies: filed as agonist, dose 1.0 10^-5M.
For data set [18] the target is unchanged. As to the kind of experiment: Agonist activity at SNAP-tagged human GHSR expressed in HEK293 cells assessed as stimulation of ghrelin-induced increase in IP1 accumulation at 10^-5 M measured after 30 mins by IP1-d2 derivative based HTRF assay relative to control. The class given is functional, cell-based. The following applies: filed as agonist, dose 1.0 10^-5M.

For data set [19], the target named is Growth hormone secretagogue receptor type 1 (Rattus norvegicus) (UniProt O08725). The data set is described as follows: Inverse agonist activity at GHSR in Wistar rat pancreatic islets assessed as suppression of ghrelin-induced inhibition of glucose-stimulated insulin secretion at 1 uM after 1 hr in presence of glucose. The format is tissue-based. The following applies: Pancreas, filed as inverse agonist.

By EC50 is commonly meant the concentration at which the effect is half-maximal. As a reminder, the Ki is the dissociation constant of the complex between target and ligand, obtained from inhibition or displacement. In general, solubility refers to how much of the substance goes into solution per volume.

In brackets after ≈: the same amount, converted by molar mass. Activity calls are given as the source filed them. The calls are words filed in the database; no cut-off is given here.

T1 sequence (Q92847 whole entry): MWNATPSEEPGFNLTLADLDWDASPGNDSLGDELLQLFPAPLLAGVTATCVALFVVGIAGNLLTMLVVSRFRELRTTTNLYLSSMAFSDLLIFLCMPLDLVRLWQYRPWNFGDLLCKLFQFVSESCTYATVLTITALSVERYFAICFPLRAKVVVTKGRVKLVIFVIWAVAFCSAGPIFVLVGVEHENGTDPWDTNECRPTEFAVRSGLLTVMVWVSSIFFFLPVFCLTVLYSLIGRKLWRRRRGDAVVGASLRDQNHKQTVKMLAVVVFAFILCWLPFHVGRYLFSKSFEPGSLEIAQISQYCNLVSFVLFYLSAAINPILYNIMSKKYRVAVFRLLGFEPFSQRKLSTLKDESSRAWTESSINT
Sequence of Growth hormone secretagogue receptor type 1 (Rattus norvegicus) (O08725 whole entry): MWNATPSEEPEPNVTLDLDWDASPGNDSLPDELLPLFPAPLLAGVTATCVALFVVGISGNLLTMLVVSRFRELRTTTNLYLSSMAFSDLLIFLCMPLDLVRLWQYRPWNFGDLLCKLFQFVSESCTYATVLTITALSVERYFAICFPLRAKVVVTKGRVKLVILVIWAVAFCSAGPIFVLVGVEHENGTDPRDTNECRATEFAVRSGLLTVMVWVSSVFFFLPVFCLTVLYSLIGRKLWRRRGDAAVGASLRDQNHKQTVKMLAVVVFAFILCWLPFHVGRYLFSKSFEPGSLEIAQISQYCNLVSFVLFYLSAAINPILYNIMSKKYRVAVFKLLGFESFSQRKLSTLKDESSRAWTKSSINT

Turning to `COc1ccc(Cn2c(CCN3CCOCC3)nnc2[C@@H](Cc2c[nH]c3ccccc23)NC(=O)CNC(=O)/C(C#N)=C/c2ccc(N(C)C)cc2)cc1`, in [1], the EC50 was 6 nM. For the same molecule, in data set [2], the Ki is 6.3 nM. Further, in data set [3], the Emax worked out at 64%.

As to `CC(C)C[C@H](NC(=O)[C@H](CC(C)C)NC(=O)[C@@H](Cc1c[nH]c2ccccc12)NC(=O)[C@H](Cc1ccccc1)NC(=O)[C@@H](Cc1cccc2ccccc12)NC(=O)[C@@H](N)CCCCN)C(N)=O`, the Activity result in data set [4] is “Non-Toxic”; in data set [5], “Non-Toxic”; in the data set with Mus musculus it was 20.1%; in [6], “Non-Toxic”; in data set [7], 67.6%; in data set [8], “Non-Toxic”. Moreover, the Activity entry in data set [9] is on record as “Non-Toxic”; in [10], “Non-Toxic”; in data set [11], 2623 mg; in [12], “Non-Toxic”; in data set [13], “Non-Toxic”.

Consider `COc1ccc(Cn2c(CCc3ccccc3)nnc2[C@@H](Cc2c[nH]c3ccccc23)NC(=O)CNC(=O)/C(C#N)=C/c2ccc(N(C)C)cc2)cc1`, for which the EC50 in data set [1] is 89 nM. Further, in data set [2], the Ki worked out at 2.4 nM. This molecule also displayed an Emax in [3] of 78%.

Regarding `COc1ccc(/C=C(\C#N)C(=O)NCC(=O)N[C@H](Cc2c[nH]c3ccccc23)c2nnc(CCc3c[nH]c4ccccc34)n2Cc2ccc(OC)cc2)cc1`, in [14] (water, read-out: solubility), the solubility is 3.8 µg/mL (≈ 5.19 µM).

For the molecule `COc1ccc(Cn2c(CCc3ccccc3)nnc2[C@@H](Cc2c[nH]c3ccccc23)NC(=O)CNC(=O)/C=C/c2ccc(F)cc2)cc1`, the %max amounted to 71% in data set [15] and 74% in [16].

Take `CCN(CC)CCc1nnc([C@@H](Cc2c[nH]c3ccccc23)NC(=O)CNC(=O)/C(C#N)=C/c2ccc(OC)cc2)n1Cc1ccc(OC)cc1`: the concentration giving a half-maximal response (EC50) in data set [1] is 35 nM. The molecule further returned a Ki in data set [2] of 10 nM. Also, the Emax in [3] is 69%.

In the case of `COc1ccc(Cn2c(CCN3CCOCC3)nnc2[C@@H](Cc2c[nH]c3ccccc23)NC(=O)CNC(=O)/C(C#N)=C/c2ccccc2)cc1`, the Emax in [3] was determined as 49%.

With `COc1ccc(Cn2c(CCc3ccccc3)nnc2[C@@H](Cc2c[nH]c3ccccc23)NC(=O)CNC(=O)/C(C#N)=C/c2ccc(F)cc2)cc1`, the EC50 in [1] worked out at 14.2 nM. Affinity in data set [2] was put at a Ki of 0.6 nM. Further, the Emax in data set [3] stood at 76%.

Turning to `COc1ccc(Cn2c(CCc3ccccc3)nnc2[C@@H](Cc2c[nH]c3ccccc23)NC(=O)CN(C)C)cc1`, the %max in data set [17] is 76%; in data set [18], 96%.

In data set [2], `COc1ccc(/C=C(\C#N)C(=O)OCC(=O)N[C@H](Cc2c[nH]c3ccccc23)c2nnc(CCc3ccccc3)n2Cc2ccc(OC)cc2)cc1` returned a Ki of 13 nM.

Turning to `COc1ccc(/C=C(\C#N)C(=O)NCCC(=O)N[C@H](Cc2c[nH]c3ccccc23)c2nnc(CCc3ccccc3)n2Cc2ccc(OC)cc2)cc1`, the EC50 in data set [1] was 3.6 nM. The molecule also displayed an inhibition constant Ki in data set [2] of 14 nM. This molecule also displayed an Emax in [3] of 75%.

For the molecule `COc1ccc(Cn2c(CCc3ccccc3)nnc2[C@@H](Cc2c[nH]c3ccccc23)NC(=O)CN)cc1`, the %max in [15] and in data set [16] was 65% in each case.

In the case of `COc1ccc(/C=C(\C#N)C(=O)NCC(=O)N[C@H](Cc2c[nH]c3ccccc23)c2nnc(CCc3ccccc3)n2Cc2ccc(OC)cc2)cc1`, the 50% effective concentration (EC50) in data set [1] was found to be 50 nM. The molecule also registered a Ki in [2] of 0.5 nM. In [3], this molecule returned an Emax of 86%.

`COc1ccc(Cn2c(CCc3ccccc3)nnc2[C@@H](Cc2c[nH]c3ccccc23)NC(=O)CNC(=O)C(C#N)Cc2ccccc2)cc1` (stereo not given in full): the %max in data set [15] amounted to 70%; in data set [16] it was 72%.

On to `COc1ccc(CC(N)C(=O)NCC(=O)N[C@H](Cc2c[nH]c3ccccc23)c2nnc(CCc3ccccc3)n2Cc2ccc(OC)cc2)cc1` (single isomer, unassigned), for which the EC50 in data set [1] is 62 nM. Further, affinity in [2] was put at a Ki of 17 nM. Moreover, the Emax in data set [3] turned out to be 43%.

Regarding `COc1ccc(Cn2c(CCc3ccccc3)nnc2[C@@H](Cc2c[nH]c3ccccc23)NC(=O)CNC(=O)C(C)(C)C#N)cc1`, the %max in data set [15] and in data set [16] was 70% each time.

On to `COc1ccc(Cn2c(CCc3ccccc3)nnc2[C@@H](Cc2c[nH]c3ccccc23)NC(=O)CNC(=O)/C(C#N)=C/c2ccc(O)cc2)cc1`, for which the Activity entry in [4] is listed as “Non-Toxic”; in [5], “Non-Toxic”; in the data set on Mus musculus it was 12.4%; in [6] it was “Non-Toxic”; in [7], 30.3%; in [8], “Non-Toxic”. Further, the Activity entry is listed as “Non-Toxic” in [9]; “Non-Toxic” in data set [10]; 2179 mg in [11]; “Non-Toxic” in [12]; “Non-Toxic” in data set [13]. For the same molecule, in [19], the result was Active. Also, the concentration for a half-maximal effect (EC50) in data set [1] came out at 27 nM. For the same molecule, the solubility result in data set [14] (buffer) is recorded as “Soluble”. Further, in data set [2], the inhibition constant Ki was found to be 3 nM. The same molecule displayed an Emax in data set [3] of 83%.

As for `COc1ccc(Cn2c(CCc3ccccc3)nnc2[C@@H](Cc2c[nH]c3ccccc23)NC(=O)CNC(=O)/C(C#N)=C/c2c[nH]c3ccccc23)cc1`, the EC50 in data set [1] amounted to 28 nM. Also, the Ki in data set [2] came to 6.3 nM. The Emax in data set [3] came to 79%.

Regarding `COc1ccc(Cn2c(CCc3ccccc3)nnc2[C@@H](Cc2c[nH]c3ccccc23)NC(=O)CNC(=O)C#Cc2ccccc2)cc1`, the figures for the %max in data set [17] and in data set [18] were 69% and 95%, respectively.

Consider `COc1ccc(Cn2c(CCc3ccccc3)nnc2[C@@H](Cc2c[nH]c3ccccc23)NC(=O)CNC(=O)/C(C#N)=C/c2ccc(C)cc2)cc1`, for which, in data set [1], the EC50 was 21.5 nM. The same molecule registered a Ki in data set [2] of 1 nM. The Emax in data set [3] is 82%.

Consider `COc1ccc(/C=C(\C#N)C(=O)N[C@@H](C)C(=O)N[C@H](Cc2c[nH]c3ccccc23)c2nnc(CCc3ccccc3)n2Cc2ccc(OC)cc2)cc1`, for which, in [1], the EC50 is 1.4 nM. In addition, affinity in [2] was put at a Ki of 3 nM. In addition, the Emax in [3] came to 78%.

In the case of `CNCC(=O)N[C@H](Cc1c[nH]c2ccccc12)c1nnc(CCc2ccccc2)n1Cc1ccc(OC)cc1`, the %max stood at 76% in data set [17] and 100% in data set [18].

The molecule `COc1ccc(Cn2c(CCc3c[nH]c4ccccc34)nnc2[C@@H](Cc2c[nH]c3ccccc23)NC(=O)CNC(=O)/C(C#N)=C/c2ccc(O)cc2)cc1` yielded a Ki in data set [2] of 30 nM.

For the origin of these results see ChEMBL document CHEMBL4665788, “Development of Nonpeptidic Inverse Agonists of the Ghrelin Receptor (GHSR) Based on the 1,2,4-Triazole Scaffold” (J Med Chem, 2020).
